Target: Leukotriene B4 receptor 1 (Homo sapiens, UniProt Q15722)
Assay: IP-One assay (LTB4R), antagonist mode at up to 50 µM ( vs. 300 nM LTB4); call rule not given here
Assay type: functional
Design: compound concentration < 50 uM

Sequence of Leukotriene B4 receptor 1 (Q15722 whole entry): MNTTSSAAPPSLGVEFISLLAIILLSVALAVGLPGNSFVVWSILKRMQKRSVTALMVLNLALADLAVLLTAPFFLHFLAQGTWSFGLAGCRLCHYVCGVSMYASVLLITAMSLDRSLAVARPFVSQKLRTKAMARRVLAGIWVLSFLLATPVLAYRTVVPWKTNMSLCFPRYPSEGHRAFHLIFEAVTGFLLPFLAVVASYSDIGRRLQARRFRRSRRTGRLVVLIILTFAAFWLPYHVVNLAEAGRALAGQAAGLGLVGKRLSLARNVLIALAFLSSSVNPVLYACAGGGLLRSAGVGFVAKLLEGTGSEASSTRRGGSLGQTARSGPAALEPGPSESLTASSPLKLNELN

EC50: > 50 µM (not active)
SMILES: CCCCC(=O)N1CC2(CCN(c3ccccc3-c3nnn[nH]3)CC2)C1
